Laboratory results as given in US9580391B2, “Saturated acyl guanidine for inhibition of F1F0-ATPase” (Lycera Corporation, priority 2012, dated 2017).

Experiments:
[1] = tested on: Ramos cells; assay: Cytotoxicity in Ramos cells; type: cell-based; conditions: Homo sapiens, read-out: Ramos Cell EC50
Method: (§1) Compounds described in above Examples were tested for activity against F1F0-ATPase by measuring the ability of the compounds to inhibit ATP synthesis. In addition, the compounds were assessed for cytotoxicity in Ramos cells. Inhibition of F1F0-ATPase activity in synthesizing ATP and cytotoxicity in Ramos cells were measured according to the procedures described in K. M. Johnson et al. Chemistry & Biology 2005, 12, 485-496.

[2] = target: T1, F1F0-ATPase (Bos taurus, UniProt P13621); assay: Inhibition of F1F0-ATPase activity in synthesizing ATP; type: biochemical; conditions: inhibition of ATP synthesis; read-out: ATP Syn IC50
T1 construct: from tissue
Method: as §1

## O=C(Cc1ccc(Cl)cc1)/N=C(/Nc1cc(F)cc(Cl)c1)Nc1ccc2cn[nH]c2c1 [Compound 3, N-(((1H-Indazol-6-yl)amino)((3-chloro-5-fluorophenyl)amino)methylene)-2-(4-chlorophenyl)acetamide]
[1]
  EC50: 5 to 16 µM
[2]
  IC50: < 5 µM

## CC(C)(C)CC(=O)/N=C(\Nc1cc(-c2ccc(F)cc2)[nH]n1)NC(C)(C)C [Compound 1, (Z)—N-((tert-Butylamino)((5-(4-fluorophenyl)-1H-pyrazol-3-yl)amino)methylene)-3,3-dimethylbutanamide]
[1]
  EC50: 5 to 16 µM
[2]
  IC50: < 5 µM

## O=C(/N=C(/Nc1cccc(Cl)c1)Nc1ccc2cn[nH]c2c1)C1CCCCC1 [Compound 2, (E)-N-(((1H-Indazol-6-yl)amino)((3-chlorophenyl)amino)methylene)cyclohexanecarboxamide]
[1]
  EC50: 5 to 16 µM
[2]
  IC50: 5 to 16 µM
